Test [1] concerns the target T1, APE1 (Homo sapiens, UniProt P27695). Briefly: MALDI-TOF analysis of APE1 degradation. The settings on record: 100 µM drug. Further details: the full length APE1 protein was successfully expressed and purified; made in house; host or cells: E. coli BL21/DE3. Here is the method: 100 nM of APE1 protein was treated with 100 µM of lucanthone, hycanthone or CRT at 37°C for 2 h and 24 h and analyzed on sinipinic acid matrix on a Voyager-DE STR (Applied Biosystems) MALDI-TOF instrument at the Proteomics facility at SUNYSB in a linear mode.

The next test concerns tubulin. Briefly: Tubulin stability in U251 1-5 whole cell extracts, Western blot. The settings on record: lucanthone 2.5-100 µM; CRT at 200 µM. Here is the method:
(§1) Total purified protein concentration was determined by the ratio of A280/A260. 250 ng of APE1 treated with lucanthone or hycanthone (0.05–100 µM) for 2 h at 37°C in final volume of 30 µl were mixed with an equal volume of gel loading buffer (0.001% bromophenol blue, 4% SDS, 10% 2-ME, 20% glycerol, and 125 mM Tris pH 6.8) and denatured at 95°C for 5 min. Total protein concentration in cell extracts was determined using the Bradford assay (BioRad, Hercules, CA) and 25 µg of total protein from soluble or insoluble cell fractions were mixed with an equal volume of gel loading buffer (0.001% bromophenol blue, 4% SDS, 10% 2-ME, 20% glycerol, and 125 mM Tris pH 6.8) and denatured at 95°C for 5 min. This mixture was separated by SDS-PAGE (4% stacking, 7.5% resolving gel) for 2–3 h at 40 mA on a BioRad MiniPROTEAN II Electrophoresis Cell. To detect proteins, proteins were transferred onto a trans-Blot nitrocellulose membrane (0.45 µm; BioRad) overnight at 4°C at 15 mA in standard Tris-Glycine buffer containing 20% ethanol. […] Chemi-luminescence was developed using an ECL kit according to the manufacturer's instructions and detected by exposing the blot to HyperfilmECL for 30 s–3 min. […]

Test [2] concerns the target T1, APE1. In words: APE1 cleavage in whole cell extracts of U251 1-5 APE1 overexpressor clone, Western blot with protease inhibitor cocktail. Further details: the full length APE1 protein was successfully expressed and purified; made in house; host or cells: E. coli BL21/DE3. Conditions: U251 1-5 whole cell extracts, 2 h, 37°C. As for the experimental part: as §1
(In general: A western blot detects proteins with antibodies after separation by electrophoresis.)

T1 sequence (P27695 whole entry): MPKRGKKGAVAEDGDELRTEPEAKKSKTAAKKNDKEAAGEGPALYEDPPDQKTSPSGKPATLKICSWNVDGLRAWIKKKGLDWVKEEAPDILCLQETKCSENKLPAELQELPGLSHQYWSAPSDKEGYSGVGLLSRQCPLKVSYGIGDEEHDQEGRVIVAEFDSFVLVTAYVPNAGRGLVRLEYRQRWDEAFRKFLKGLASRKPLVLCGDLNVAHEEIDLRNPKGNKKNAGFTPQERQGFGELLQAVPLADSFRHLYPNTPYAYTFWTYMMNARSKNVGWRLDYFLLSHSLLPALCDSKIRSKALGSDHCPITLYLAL

With `O=C(O)c1cc2cccc([N+](=O)[O-])c2[nH]1` [CRT0044876, 7-Nitroindole-2-carboxylic acid], the “Time at which APE1 degradation is seen by MALDI” value at APE1 [1] is given as 24 h. Further, the “APE1 protein fragments by MALDI-TOF” value on APE1 [1] (37°C, 2 or 24 h) was “much less cleavage of APE1”. Besides, the “Full length 35.5 kDa APE1 peak by MALDI-TOF” value on APE1 [1] (37°C, 24 h) is “still an intact 35.5 kDa peak”. Further, the “Effect on tubulin protein” value in the test on tubulin is reported as “some shift in its migration”. Besides, the “Concentration causing cleavage of APE1” value at APE1 [2] turned out to be 200 µM.

The values above are taken from PMC3174134, “Lucanthone and Its Derivative Hycanthone Inhibit Apurinic Endonuclease-1 (APE1) by Direct Protein Binding” (PLoS ONE, 2011).
